# According to patent publication US20100267775A1, “OXADIAZOLIDINEDIONE COMPOUND” (priority 2007, published 2010):
# What was measured:
# [1] = molecular target: T1, human GPR40 (Homo sapiens, UniProt O14842, R211H); assay: Measurement of GPR40 agonistic activity (intracellular calcium, FLIPR, CHO cell line expressing human GPR40); type: cell-based; details: change in fluorescence intensity one minute after measurement
# T1 construct: expressed in transfected cells; host or cells: CHO dhfr- cells stably transfected with plasmid pEF-BOS-dhfr-GPR40
# T1 sequence (O14842 whole entry R211H): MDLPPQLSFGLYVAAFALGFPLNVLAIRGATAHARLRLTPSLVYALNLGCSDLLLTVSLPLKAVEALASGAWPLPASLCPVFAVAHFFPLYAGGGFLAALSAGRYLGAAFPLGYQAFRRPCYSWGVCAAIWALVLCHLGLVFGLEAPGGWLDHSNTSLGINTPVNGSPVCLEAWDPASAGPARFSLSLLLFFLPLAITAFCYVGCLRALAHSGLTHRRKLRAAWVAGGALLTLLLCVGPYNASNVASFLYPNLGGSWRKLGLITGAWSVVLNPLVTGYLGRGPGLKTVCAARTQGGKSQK
# Source text: Test Method 1: Measurement of GPR40 Agonistic Activity i) Cloning of Human GPR40
# In accordance with procedures as described below, the full-length sequence of GPR40 was obtained by a polymerase chain reaction (PCR) to set human genomic DNA (Clontech) as a template.
# Oligonucleotide which consists of a base sequence represented by SEQ ID NO. 1 was used as a forward primer, and oligonucleotide which consists of a base sequence represented by SEQ ID NO. 2 was used as a reverse primer. To each 5′ terminus of the forward primer and the reverse primer described above, a base sequence including the XbaI recognition site is attached. In the PCR, using Taq DNA polymerase (Ex Taq DNA polymerase; TAKARA BIO INC.), a cycle consisting of 94° C. (15 sec)/55° C. (30 sec)/72° C. (1 min) was repeated 30 times in the presence of 5% DMSO. As a result, the DNA fragment of about 0.9 kbp was amplified. This DNA fragment was digested with XbaI, followed by inserting into the XbaI site of plasmid pEF-BOS-dhfr (Nucleic Acids Research, 18, 5322, 1990) to obtain plasmid pEF-BOS-dhfr-GPR40.
# The base sequence of GPR40 gene in plasmid pEF-BOS-dhfr-GPR40 was decided by a dideoxy terminator method using a DNA sequencer (ABI377 DNA Sequencer; Applied Biosystems). The base sequence of GPR40 gene was the same with the base sequence represented by SEQ ID NO. 3. The base sequence represented by SEQ ID NO. […] 4 […]
# ii) Preparation of GPR40 Stable Expression Cell
# A CHO dhfr cell (CHO cell deleting a dihydrofolate reductase (dhfr) gene) was used as a cell in which GPR 40 protein was expressed. In addition, the plasmid pEF-BOS-dhfr-GPR40 obtained in the above i) was used as an expressing plasmid to express GPR40 protein. To a 6 well plate (Asahi Techno Glass Corp.), the CHO dhfr cells were seeded to become 80 to 90% confluent in an aMEM medium having 10% fetal calf serum (FCS), and cultivated overnight. Then, 2 μg of plasmid pEF-BOS-dhfr-GPR40 per well was transferred generetically thereto using a transfection reagent (Lipofectamine 2000; Invitrogen Corporation). After cultivating for 24 hours subsequent to the gene transfer, the cell were diluted and reseeded. On this occasion, the αMEM medium having 10% FCS was changed for an αMEM medium having 10% FCS and no nucleic acid. After 20 days cultivation, formed cell colonies were collected respectively and cultivated, thereby obtaining CHO cells stably expressing GPR40. Among these, cells high-reactive to an oleic acid and a linoleic acid which were intrinsic ligands were selected. […]
# iii) Measurement of GPR40 Agonistic Activity
# The GPR40 agonistic activity was measured with fluctuation of the intracellular calcium concentration as an index by FLIPR (registered trademark, Molecular Devices Corporation). Hereinafter, test methods will be described.
# A CHO cell line expressing human GPR40 was seeded with 6×10^3 per well to a 384-well black plate (Becton, Dickinson and Company), and cultivated in a CO2 incubator overnight. For a luminescent pigment, a Calcium-3 assay kit (Molecular Devices Corporation) was used, and dissolved in 10 ml of a HBSS-HEPES buffer (PH7.4, 1×HBSS, 20 mM HEPES, Invitrogen Corporation) for a bottle. 35.68 mg of probenecid (Sigma) was dissolved in 250 μl of 1M NaOH, and then 250 μl of a HBSS-HEPES buffer was added to blend. 16 ml of a HBSS-HEPES buffer, 640 μl of the luminescent pigment and 32 μl of probenecid were added to blend for a solution of the luminescent pigment per plate. The medium of the plate was removed, 40 μl of the solution of the luminescent pigment per well was dispensed, followed by incubating at room temperature for 2 hours. A compound to be inspected was dissolved in DMSO, and diluted with a HBSS-HEPES buffer. A reaction was initiated by 10 μl of dispensation, the fluctuation of the intracellular calcium concentration was measured by FLIPR. An EC50 value of the compound to be inspected was calculated from the dose-response curve of change in fluorescence intensity one minute after measurement.
# [2] = tested on: normal mice; assay: Single oral glucose tolerance test on normal mice; type: in vivo; details: Mus musculus; for inhibition in vivo at 10 mg/kg: 0.5 h, read-out: Reduction rate of blood glucose level (%); for minimal effective dose: read-out: MED
# Experimental: Test Method 3: Single Oral Glucose Tolerance Test on Normal Mice
# The anti-hyperglycemic action after glycemic load of the compound to be inspected was examined using normal mice. Hereinafter, the test method will be described.
# Male ICR mice which was preparedly reared for one week (6-week-old) was fasted overnight, and used as an animal to be inspected. A compound to be inspected was 0.5% methylcellulose suspension, and the suspension was orally administered 30 minutes before the glucose (2 g/kg) load. With regard to some compounds to be inspected, prior blood drawing was performed (0 min value), and blood glucose levels were measured at 5, 15, 30, 60 and 120 minutes later glucose load when the compound to be inspected was orally administered. A control group was given 0.5% methylcellulose. The evaluation was carried out in the following manner. (Evaluation 1) The reduction rate of blood glucose levels after glucose loading (%) with respect to the control group was calculated at a point of glucose load which is 30 minutes after the oral administration of 10 mg/kg of the compound to be inspected. […] Ex represents example compound numbers.
# (Evaluation 2) The reduction rate of blood glucose levels after glucose loading (%) with respect to the control group was calculated at a point of glucose load which is 30 minutes after the oral administration of 10, 3, 1, 0.3 or 0.1 mg/kg of the compound to be inspected. […] Ex represents example compound numbers. In addition, MED describing “below” in Table 3 means that a test was not carried out due to less than dose described.
# The area under the blood concentration-time curve (AUC) of blood glucose levels for 0 to 120 minute(s) was calculated from the blood glucose levels before the blood drawing, and the blood glucose levels at 5, 15, 30, 60, and 120 minutes after the glucose load when 30, 10, 3, 1 or 0.3 mg/kg of the compound to be inspected was orally administered.
Compound,EC50 [1] [µM],inhibition in vivo at 10 mg/kg [2] [%],minimal effective dose [2] [mg/kg]
Cc1cc(OC[C@@H](O)CO)cc(C)c1-c1cccc(CNc2ccc(Cn3oc(=O)[n-]c3=O)cc2)c1C.[Na+] [Example 68],0.022,23,3
Cc1cc(OCC[C@@H](C)O)cc(C)c1-c1cccc(COc2ccc(Cn3oc(=O)[n-]c3=O)cn2)c1C.[Na+] [Example 44],0.19,34,< 0.3
CCC(=O)NCCCOc1cc(C)c(-c2cccc(COc3ccc(Cn4oc(=O)[n-]c4=O)cc3)c2C)c(C)c1.[Na+] [Example 119],0.81,26,3
Cc1cc(OC[C@H](O)CO)cc(C)c1-c1cccc(COc2ccc(Cn3oc(=O)[n-]c3=O)cc2)c1C.[Na+] [Example 26],0.41,27,10
Cc1cc(-c2cccc(COc3ccc(Cn4oc(=O)[n-]c4=O)cc3)c2C)c(C)cc1OCCO.[Na+] [Example 63],0.38,22,< 1
Cc1cc(OCCO)c(F)cc1-c1cccc(COc2ccc(Cn3oc(=O)[n-]c3=O)cc2)c1C.[Na+] [Example 94],0.64,39,3
Cc1cc(-c2cccc(CNc3ccc(Cn4oc(=O)[n-]c4=O)cc3)c2C)c(C)cc1OC[C@@H](O)CO.[Na+] [Example 96],0.19,23,10
COC[C@@H](O)COc1cc(C)c(-c2cccc(COc3ccc(Cn4oc(=O)[n-]c4=O)cc3)c2C)c(C)c1.[Na+] [Example 56],0.82,29,3
Cc1cc(OCC[C@H](C)O)cc(C)c1-c1cccc(COc2ccc(Cn3oc(=O)[n-]c3=O)cn2)c1C.[Na+] [Example 45],0.28,35,1
Cc1c(COc2ccc(Cn3oc(=O)[n-]c3=O)cc2)cccc1-c1cccc(OCCC(C)(C)O)c1C.[Na+] [Example 27],0.23,42,1
Cc1cc(OCC[C@@H](C)O)nc(C)c1-c1cccc(CNc2ccc(Cn3oc(=O)[n-]c3=O)cc2)c1C.[Na+] [Example 81],0.16,33,< 3
Cc1cc(-c2cccc(CNc3ccc(Cn4oc(=O)[n-]c4=O)cc3)c2C)c(C)nc1OCCO.[Na+] [Example 89],0.11,25,3
Cc1c(CNc2ccc(Cn3oc(=O)[nH]c3=O)cc2)cccc1-c1cccc(OCCO)c1C [Example 107],0.093,,
Cc1cc(OCCO)c(F)cc1-c1cccc(CNc2ccc(Cn3oc(=O)[n-]c3=O)cc2)c1C.[Na+] [Example 85],0.42,24,3
